The values that follow come from patent US8383139B2 (Bayer CropScience AG, priority 2008, dated 2013).

Structures are written as SMILES.

Data set [1] in a line: log P by HPLC on reversed-phase columns (C 18), EEC Directive 79/831 Annex V.A8. The data set is classed as physicochemical. The note with it: reversed-phase C18 HPLC column, pH 2.3, [a] HPLC, acid region pH 2.3, 0.1% aqueous phosphoric acid and acetonitrile; read-out: log p.
The next data set deals with Alternaria solani. Description: Alternaria test (tomato)/protective. Format: in vivo. The note with it: 72 h, 100 ppm active substance, protective, evaluation 3 days after inoculation, read-out: degree of effectiveness. As for the experimental part: (§1) • Solvents: 24.5 parts by weight of acetone • 24.5 parts by weight of dimethylacetamide • Emulsifier: 1 part by weight of alkylaryl polyglycol ether (polyoxyethylene (16) tristearylphenyl ether)
(§2) To prepare a suitable active substance composition, 1 part by weight of active substance is mixed with the given amounts of solvents and emulsifier and the concentrate is diluted to the desired concentration using water.
For the testing of protective effectiveness, young plants are sprayed with the active substance composition in the application rate given. After the spray coating has been dried on, the plants are inoculated with an aqueous suspension of spores of Alternaria solani. The plants are then placed in an incubation chamber at approximately 20° C. and 100% relative humidity.
Evaluation is carried out 3 days after the inoculation. In this connection, 0% means a degree of effectiveness corresponding to that of the control, while a degree of effectiveness of 100% means that no infestation is observed.

In a further data set the test system is Sphaerotheca fuliginea. The data set is described as follows: Sphaerotheca test (cucumber)/protective. To be noted: Podosphaera fuliginea, 168 h, 500 ppm active substance, protective, evaluation 7 days after inoculation, read-out: degree of effectiveness. Format: in vivo. As for the experimental part: • Solvents: 49 parts by weight of N,N-dimethylformamide • Emulsifier: 1 part by weight of alkylaryl polyglycol ether (polyoxyethylene (16) tristearylphenyl ether) To prepare a suitable active substance composition, 1 part by weight of active substance is mixed with the given amounts of solvents and emulsifier and the concentrate is diluted to the desired concentration using water. For the testing of protective effectiveness, young cucumber plants are sprayed with the active substance composition in the application rate given. One day after the treatment, the plants are inoculated with a suspension of spores of Sphaerotheca fuliginea. Subsequently, the plants are placed in a greenhouse at 70% relative humidity and at a temperature of 23° C. Evaluation is carried out 7 days after the inoculation. In this connection, 0% means a degree of effectiveness corresponding to that of the control, while a degree of effectiveness of 100% means that no infestation is observed.

The test system of the next data set is Puccinia triticina. The data set is described as follows: Puccinia triticina test (wheat)/protective. To be noted: 192 h, 500 ppm active substance, protective, evaluation 8 days after inoculation, read-out: degree of effectiveness. The data set is classed as in vivo. How it is done:
• Solvent: 50 parts by weight of N,N-dimethylacetamide • Emulsifier: 1 part by weight of alkylaryl polyglycol ether (polyoxyethylene (16) tristearylphenyl ether) To prepare a suitable active substance composition, 1 part by weight of active substance is mixed with the given amounts of solvent and emulsifier and the concentrate is diluted to the desired concentration using water. For the testing of protective effectiveness, young plants are sprayed with the active substance composition in the application rate given. After the spray coating has been dried on, the plants are sprayed with spores with a suspension of spores of Puccinia triticina. The plants remain in an incubation chamber at 20° C. and 100% relative humidity for 48 hours. The plants are placed in a greenhouse at a temperature of approximately 20° C. and a relative humidity of approximately 80%. Evaluation is carried out 8 days after the inoculation. In this connection, 0% means a degree of effectiveness corresponding to that of the control, while a degree of effectiveness of 100% means that no infestation is observed.

A further data set relates to Septoria tritici. Description: Septoria tritici test (wheat)/protective. The data set is classed as in vivo. To be noted: Zymoseptoria tritici, 504 h, 500 ppm active substance, protective, evaluation 21 days after inoculation, read-out: degree of effectiveness. How it is done:
• Solvent: 50 parts by weight of N,N-dimethylacetamide • Emulsifier: 1 part by weight of alkylaryl polyglycol ether (polyoxyethylene (16) tristearylphenyl ether) To prepare a suitable active substance composition, 1 part by weight of active substance is mixed with the given amounts of solvent and emulsifier and the concentrate is diluted to the desired concentration using water. For the testing of protective effectiveness, young plants are sprayed with the active substance composition at the application rate given. After the spray coating has dried on, the plants are sprayed with a suspension of spores of Septoria tritici. The plants remain in an incubation chamber at 20° C. and 100% relative humidity for 48 hours. The plants are afterwards placed under a transparent hood at 15° C. and 100% relative humidity for a further 60 hours. The plants are placed in a greenhouse at a temperature of approximately 15° C. and a relative humidity of 80%. Evaluation is carried out 21 days after the inoculation. In this connection, 0% means a degree of effectiveness corresponding to that of the control, while a degree of effectiveness of 100% means that no infestation is observed.

A further data set deals with Uromyces appendiculatus. Description: Uromyces test (beans)/protective. The data set is classed as in vivo. The note with it: 240 h, 100 ppm active substance, protective, evaluation 10 days after inoculation, read-out: degree of effectiveness. How it is done:
as §1, §2
For the testing of protective effectiveness, young plants are sprayed with the active substance composition in the application rate given. After the spray coating has been dried on, the plants are inoculated with an aqueous suspension of the spores of the bean rust pathogen Uromyces appendiculatus and then remain in an incubation chamber at approximately 20° C. and 100% relative humidity for 1 day.
The plants are then placed in a greenhouse at approximately 21° C. and a relative humidity of approximately 90%.
Evaluation is carried out 10 days after the inoculation. In this connection, 0% means a degree of effectiveness corresponding to that of the control, while a degree of effectiveness of 100% means that no infestation is observed.

As to `Cc1cc(Oc2nc(C3(c4ccc(Cl)cc4)CC3)ns2)c(Cl)cc1N=CN1CCCCC1` [Example 44, 5-chloro-4-({3-[1-(4-chlorophenyl)cyclopropyl]-1,2,4-thiadiazol-5-yl}oxy)-2-methyl-N-(piperidin-1-ylmethylidene)aniline], the chromatographic logP in data set [1] was determined as 2.76. Also, the pest or weed control at 100 ppm in the data set with Alternaria solani was no less than 70%. Also, the pest or weed control at 500 ppm in the data set with Sphaerotheca fuliginea, in the data set with Puccinia triticina and in the data set on Septoria tritici was no less than 70% throughout.

`CCN(C)C=Nc1cc(C)c(Oc2nc(Cc3ccc4c(c3)OCO4)ns2)cc1C` [Example 46, N′-(4-{[3-(1,3-benzodioxol-5-ylmethyl)-1,2,4-thiadiazol-5-yl]oxy}-2,5-dimethylphenyl)-N-ethyl-N-methylimidoformamide]: the chromatographic logP in data set [1] was determined as 1.65. Moreover, in the data set on Alternaria solani, the pest or weed control at 100 ppm is no less than 70%. Further, the pest or weed control at 500 ppm in the data set on Sphaerotheca fuliginea, with Puccinia triticina and in the data set with Septoria tritici was no less than 70% each time.

For the compound `Cc1cc(Oc2nc(C(C)(C)c3ccc(Cl)cc3)ns2)c(C)cc1N=CN(C)C(C)C` [Example 27, N′-[4-({3-[2-(4-chlorophenyl)propan-2-yl]-1,2,4-thiadiazol-5-yl}oxy)-2,5-dimethylphenyl]-N-methyl-N-(propan-2-yl)imidoformamide], the chromatographic logP in data set [1] turned out to be 2.71. Also, the pest or weed control at 100 ppm with Alternaria solani and in the data set on Uromyces appendiculatus was no less than 70% in each case. Also, the pest or weed control at 500 ppm in the data set on Sphaerotheca fuliginea was no less than 70%.

`Cc1cc(Oc2nc(Cc3ccc(Cl)cc3Cl)ns2)c(C)cc1N=CN(C)C(C)C` [Example 12, N′-(4-{[3-(2,4-dichlorobenzyl)-1,2,4-thiadiazol-5-yl]oxy}-2,5-dimethylphenyl)-N-methyl-N-(propan-2-yl)imidoformamide]: the chromatographic logP in data set [1] was 2.24. Besides, the pest or weed control at 100 ppm in the data set on Uromyces appendiculatus was no less than 70%. In addition, the pest or weed control at 500 ppm in the data set with Sphaerotheca fuliginea, in the data set on Puccinia triticina and with Septoria tritici was no less than 70% in each case.

For `Cc1cc(Oc2nc(C(C)c3ccc(Cl)cc3)ns2)c(Cl)cc1N=CN(C)C(C)C` (stereo not drawn) [Example 22, N′-[5-chloro-4-({3-[1-(4-chlorophenyl)ethyl]-1,2,4-thiadiazol-5-yl}oxy)-2-methylphenyl]-N-methyl-N-(propan-2-yl)imidoformamide], in data set [1], the chromatographic logP is 2.52. Further, the pest or weed control at 100 ppm in the data set with Alternaria solani and with Uromyces appendiculatus was no less than 70% in each case. Moreover, in the data set with Puccinia triticina, the pest or weed control at 500 ppm was no less than 70%.

Take `Cc1cc(Oc2nc(Cc3cccc(Cl)c3)ns2)c(C)cc1N=CN1CCCCC1` [Example 34, 4-{[3-(3-chlorobenzyl)-1,2,4-thiadiazol-5-yl]oxy}-2,5-dimethyl-N-(piperidin-1-ylmethylidene)aniline]: the chromatographic logP in data set [1] was determined as 2.13. For the same compound, the pest or weed control at 100 ppm with Uromyces appendiculatus was no less than 70%. Moreover, the pest or weed control at 500 ppm in the data set with Sphaerotheca fuliginea, in the data set on Puccinia triticina and with Septoria tritici was no less than 70% throughout.

Consider `CCN(C)C=Nc1cc(C)c(Oc2nc(Cc3cc(Br)ccc3C)ns2)cc1C` [Example 14, N′-(4-{[3-(5-bromo-2-methylbenzyl)-1,2,4-thiadiazol-5-yl]oxy}-2,5-dimethylphenyl)-N-ethyl-N-methylimidoformamide], for which the chromatographic logP in data set [1] is 2.28. Also, the pest or weed control at 100 ppm in the data set on Uromyces appendiculatus was no less than 70%. Besides, the pest or weed control at 500 ppm in the data set with Sphaerotheca fuliginea, in the data set on Puccinia triticina and with Septoria tritici was no less than 70% in each case.

Consider `Cc1cc(Oc2nc(Cc3ccccc3C(F)(F)F)ns2)c(C)cc1N=CN1CCCCC1` [Example 43, 2,5-dimethyl-N-(piperidin-1-ylmethylidene)-4-({3-[2-(trifluoromethyl)benzyl]-1,2,4-thiadiazol-5-yl}oxy)aniline], for which the chromatographic logP in data set [1] amounted to 2.15. Besides, the pest or weed control at 100 ppm in the data set with Alternaria solani and in the data set with Uromyces appendiculatus was no less than 70% each time. Further, the pest or weed control at 500 ppm in the data set on Sphaerotheca fuliginea and in the data set on Puccinia triticina was no less than 70% throughout.

With `Cc1cc(Oc2nc(C3(c4ccc(Cl)cc4)CC3)ns2)c(C)cc1N=CN(C)C(C)C` [Example 39, N′-[4-({3-[1-(4-chlorophenyl)cyclopropyl]-1,2,4-thiadiazol-5-yl}oxy)-2,5-dimethylphenyl]-N-methyl-N-(propan-2-yl)imidoformamide], in data set [1], the chromatographic logP stood at 2.57. Also, the pest or weed control at 100 ppm with Alternaria solani was no less than 70%. Besides, the pest or weed control at 500 ppm in the data set on Sphaerotheca fuliginea, with Puccinia triticina and in the data set with Septoria tritici was no less than 70% each time.

As to `Cc1cc(Oc2nc(C3(c4ccc(Cl)cc4)CC3)ns2)c(C)cc1N=CN1CCCCC1` [Example 38, 4-({3-[1-(4-chlorophenyl)cyclopropyl]-1,2,4-thiadiazol-5-yl}oxy)-2,5-dimethyl-N-(piperidin-1-ylmethylidene)aniline], the chromatographic logP in data set [1] is 2.6. Moreover, the pest or weed control at 100 ppm in the data set on Alternaria solani is no less than 70%. Moreover, the pest or weed control at 500 ppm in the data set with Sphaerotheca fuliginea, with Puccinia triticina and in the data set with Septoria tritici was no less than 70% each time.

Consider `Cc1cc(Oc2nc(C(C)(C)c3ccc(Cl)cc3)ns2)c(Cl)cc1N=CN1CCCCC1` [Example 29, 5-chloro-4-({3-[2-(4-chlorophenyl)propan-2-yl]-1,2,4-thiadiazol-5-yl}oxy)-2-methyl-N-(piperidin-1-ylmethylidene)aniline], for which the chromatographic logP in data set [1] turned out to be 2.96. In addition, in the data set with Alternaria solani, the pest or weed control at 100 ppm is no less than 70%. Also, the pest or weed control at 500 ppm in the data set with Sphaerotheca fuliginea, with Puccinia triticina and with Septoria tritici was no less than 70% each time.

In the case of `Cc1cc(Oc2nc(Cc3ccc4c(c3)OCO4)ns2)c(C)cc1N=CN1CCCCC1` [Example 45, 4-{[3-(1,3-benzodioxol-5-ylmethyl)-1,2,4-thiadiazol-5-yl]oxy}-2,5-dimethyl-N-(piperidin-1-ylmethylidene)aniline], the chromatographic logP in data set [1] came to 1.84. Further, in the data set on Alternaria solani, the pest or weed control at 100 ppm is no less than 70%. Also, the pest or weed control at 500 ppm with Sphaerotheca fuliginea, in the data set with Puccinia triticina and with Septoria tritici was no less than 70% each time.

For the compound `Cc1cc(Oc2nc(Cc3ccc(Cl)cc3)ns2)c(Cl)cc1N=CN1CCCCC1` [Example 4, 5-chloro-4-{[3-(4-chlorobenzyl)-1,2,4-thiadiazol-5-yl]oxy}-2-methyl-N-(piperidin-1-ylmethylidene)aniline], the chromatographic logP in data set [1] came to 2.53. In addition, the pest or weed control at 100 ppm in the data set with Uromyces appendiculatus was no less than 70%. Moreover, the pest or weed control at 500 ppm in the data set with Sphaerotheca fuliginea, with Puccinia triticina and with Septoria tritici was no less than 70% in each case.
